Where two headings read alike, the source gives them in different places.
Test: Pharmacokinetics (plasma and brain levels) in ICR (CD-1) mice
Assay type: in vivo
Conditions: male, mouse; for AUC(0-inf): read-out: AUCINF_obs; for MRT inf: read-out: MRTINF_obs
Protocol: ICR (CD-1) male mice were fasted at least three horns and water was available ad libitum before the study. Animals were housed in a controlled environment, target conditions: temperature 18 to 29° C., relative humidity 30 to 70%. Temperature and relative humidity was monitored daily. An electronic time controlled lighting system was used to provide a 12 h light/12 h dark cycle. 3 mice for each indicated time point. ICR (CD-1) mice were administered CA77 at 1 mg/kg i.v. and 30 mg/kg p.o. or CA77.1 at 1 mg/kg i.v. (FIG. 2A) and 10 mg/kg p.o. (FIG. 2B). Three (3) mice were included in each dosage and time group. Mice were sacrificed and plasma and brains were obtained at 0.083, 0.25, 0.50, 1.0, 2.0, 4.0, 8.0, and 24.0 hours after administration and drug concentration determined using LC-MS/MS. Brains were removed, homogenized with a tissue homogenizer in cold 5% w/v BSA in phosphate buffer saline (PBS). A 100 microliter aliquots of brain samples were dispensed in to glass culture tubes and mixed with ethyl acetate (800 μl), vortexed, and centrifuged. The organic layer was transferred to a fresh culture tube, dried under nitrogen, and reconstituted in mobile phase for quantitation. Pharmacokinetic parameters were determined by standard methods using Phoenix WinNonlin 6.3 software.
Tables 3A and 3B provide the concentrations of CA77 in ICR (CD-1) mouse plasma (3A) and mouse brain (3B) following i.v. administration of 1 mg/kg CA77. Table 3C provides the brain/plasma ratio of CA77 following i.v. administration of 1 mg/kg CA77. Shaded cells indicate data not included in statistics due to aberrant value. BLQ=Below Limit of Quantitation.
Tables 5A and 5B provide the concentrations of CA77.1 in ICR (CD-1) mouse plasma (5A) and mouse brain (5B) following i.v. administration of 1 mg/kg CA77.1. Table 5C provides the brain/plasma ratio of CA77.1 following i.v. administration of 1 mg/kg CA77.1. The plasma and brain pharmacokinetic parameters for CA77.1 are provided in Table 6. *—cells contain data not present in the statistics.

[1] = ICR (CD-1), brain, iv, 1 mg/kg, i.v. 1 mg/kg, mouse brain, read-out: Conc. in brain, Mean
[2] = ICR (CD-1), brain, iv, 1 mg/kg, i.v. 1 mg/kg, mouse brain, read-out: Conc. in brain, individual animal
[3] = ICR (CD-1), brain/plasma, iv, 1 mg/kg, i.v. 1 mg/kg, read-out: Brain/Plasma ratio, Mean
[4] = ICR (CD-1), brain/plasma, iv, 1 mg/kg, i.v. 1 mg/kg, read-out: Brain/Plasma ratio, individual animal
[5] = ICR (CD-1), plasma, iv, 1 mg/kg, i.v. 1 mg/kg, mouse plasma, read-out: Conc. in plasma, Mean
[6] = ICR (CD-1), plasma, iv, 1 mg/kg, i.v. 1 mg/kg, mouse plasma, read-out: Conc. in plasma, individual animal
[7] = plasma, iv, i.v. 1 mg/kg, ICR (CD-1) mice
[8] = plasma, po, p.o. 10 mg/kg, ICR (CD-1) mice

CC(=O)Nc1ccc(-c2cnc3cc(Cl)ccc3n2)cc1 [CA77.1, N-(4-(6-chloroquinoxalin-2-yl)phenyl)acetamide]
concentration at 8 h [1]: 4 ng/g | concentration at 8 h [2]: 4.92 ng/g | concentration at 24 h [1]: 0 ng/g | concentration at 24 h [2]: 0 ng/g | Kp at 0.083 h [3]: 5.64 | Kp at 0.083 h [4]: 5.81 | Kp at 0.25 h [3]: 6.19 | Kp at 0.25 h [4]: 6.54 | Kp at 0.5 h (ICR (CD-1), brain/plasma, iv, 1 mg/kg, i.v. 1 mg/kg, 0.50 h, read-out: Brain/Plasma ratio, Mean): 3.92 | Kp at 1 h [3]: 7.52 | Kp at 1 h [4]: 5.44 | Kp at 2 h (ICR (CD-1), brain/plasma, iv, 1 mg/kg, i.v. 1 mg/kg, 2.00 h, read-out: Brain/Plasma ratio, Mean): 6.22 | Kp at 4 h (ICR (CD-1), brain/plasma, iv, 1 mg/kg, i.v. 1 mg/kg, 4.00 h, read-out: Brain/Plasma ratio, Mean): 4 | Kp at 8 h [3]: 2.23 | Kp at 8 h [4]: 1.79 | Kp at 24 h [3]: 0 | Kp at 24 h [4]: 0 | concentration at 0.083 h [5]: 190 ng/mL | concentration at 0.083 h [6]: 177 ng/mL | concentration at 0.25 h [5]: 129 ng/mL | concentration at 0.25 h [6]: 132 ng/mL | concentration at 0.5 h (ICR (CD-1), plasma, iv, 1 mg/kg, i.v. 1 mg/kg, mouse plasma, 0.50 h, read-out: Conc. in plasma, Mean): 276 ng/mL | concentration at 1 h [5]: 91 ng/mL | concentration at 1 h [6]: 110 ng/mL | concentration at 2 h (ICR (CD-1), plasma, iv, 1 mg/kg, i.v. 1 mg/kg, mouse plasma, 2.00 h, read-out: Conc. in plasma, Mean): 46 ng/mL | concentration at 4 h (ICR (CD-1), plasma, iv, 1 mg/kg, i.v. 1 mg/kg, mouse plasma, 4.00 h, read-out: Conc. in plasma, Mean): 6 ng/mL | concentration at 8 h [5]: 2 ng/mL | concentration at 8 h [6]: 2.74 ng/mL | concentration at 24 h [5]: 1 ng/mL | concentration at 24 h [6]: 0.556 ng/mL | AUC(0-t) [7]: 314 ng·h/mL | half-life [7]: 1.39 h | AUC(0-inf) [7]: 315 ng·h/mL | MRT inf [7]: 2 h | bioavailability (plasma, oral, p.o. 10 mg/kg vs i.v. 1 mg/kg, ICR (CD-1) mice): 46.4% | AUC(0-t) [8]: 1460 ng·h/mL | half-life [8]: 2.78 h | AUC(0-inf) [8]: 1460 ng·h/mL | Cmax (plasma, po, p.o. 10 mg/kg, ICR (CD-1) mice, read-out: Cmax): 464 ng/mL | MRT inf [8]: 3 h | Tmax (plasma, po, p.o. 10 mg/kg, ICR (CD-1) mice, read-out: Tmax): 1 h

Reference: US11834424B2, “Compounds useful as chaperone-mediated autophagy modulators” (ALBERT EINSTEIN COLLEGE OF MEDICINE, priority 2018, dated 2023)
